From patent US12391685B2, “Inhibitors of RNA-guided nuclease target binding and uses thereof” (THE BROAD INSTITUTE, INC., priority 2018, dated 2025)
Where two headings read alike, the source gives them in different places.

How the values were obtained:
SpCas9 [1] = biological target: T1, SpCas9 (Streptococcus pyogenes serotype M1, UniProt Q99ZW2); experiment: Cellular thermal shift assay (CETSA) in WM793 melanoma cells; assay type: cell-based, S. pyogenes; conditions: 15 μM, 24 h, WM793 cells stably expressing SpCas9
Procedure: Cellular Thermal Shift Assay (CETSA). Approximately 1× 10^6 cells pre-incubated with either DMSO or 15 μM BRD0539 for 24 h were resuspended in PBS and transferred to 200 μL PCR tubes. The suspended cells were heated to a different temperature for 3 min followed by lysis in 100 μL RIPA buffer containing protease inhibitors at 4° C. for 30 min. The clear cell lysate was collected by centrifuging the suspensions at 20,000×g for 20 min. The supernatant was transferred to a fresh tube and processed for Western blotting. Western blotting was performed using SDS-PAGE. In a typical experiment, 10 μg of proteins were electrophoresed on a 4-12% Bis-Tris gel and proteins were transferred to a PVDF membrane and probed with primary anti-SpCas9 antibody (abcam #ab191468). The membrane was imaged and bands were quantified using the LI-COR Odyssey imaging system. The CETSA curves were fitted with the equation, y=(U-L)/(1+e^(−(A/T−1)B))+L where, U and L are the upper and lower asymptotes, A is a half-way temperature, and B controls the slope of the sigmoid; temperature T is expressed in K. After the fitting, the data were re-normalized by dividing by U and the Tm was calculated using the formula Tm=AB/(B+log(1−2L/U)).

SpCas9 [2] = biological target: T1, SpCas9; experiment: mKate2-disruption assay in HEK293T cells; assay type: cell-based, S. pyogenes; conditions: 1.5-5 μM, 24 h
Procedure: mKate2-disruption assay. Approximately 8,000 cells/well were seeded in a 96-well plate 24 h before transient transfection with 100 ng of either CgRNA (Addgene Plasmid #64955) or T1gRNA (Addgene Plasmid #62717) plasmids using Lipofectamine 2000 (Life Technologies). Transfected cells were allowed to grow in the indicated amount of small molecule or DMSO for 24 h. Cells were then fixed using 4% paraformaldehyde and imaged with the HCS NuclearMask™ Blue Stain (Life Technologies) as the nuclear counter-staining agent. Imaging was performed with an ImageXpress Micro automated microscope (Molecular Devices) at 20× magnification under two excitation channels (blue and red) with 9 acquisition sites per well. Images were analyzed using the MetaXpress software to determine the % mKate2 positive cells and data was plotted using GraphPad Prism 6. The Z′-value was calculated following the formula: Z′=1−(3(σ1+σ2))/(|μ1−μ2|) where σ1 and σ2 are the standard deviations of CgRNA transfected wells and T1gRNA transfected wells respectively. μ1 and μ2 are the mean % RFP^+ cell population for CgRNA transfected wells and T1gRNA transfected wells, respectively.

[3] = biological target: T2, dCas9-based transcription-activation complex (Streptococcus pyogenes serotype M1, UniProt Q99ZW2, D10A, form not given); experiment: dCas9-based transcription activation of HBG1 in HEK293FT cells (RT-qPCR); assay type: cell-based, S. pyogenes; conditions: 20 μM
T2 construct: "dSpCas9|Feng Zhang lab|NA"; The MS2-p65-HSF1(-GFP) effector is a separate chain recruited through MS2 aptamers in the sgRNA
Procedure: Transcription activation experiments and quantitative RT-PCR analyses. HEK293FT cells were maintained in high glucose DMEM with glutamax (Life Technologies) and supplemented with 10% FBS (Life Technologies), 1% penicillin-streptomycin (Life Technologies) and 1 mM sodium pyruvate (Life Technologies). For transcription activation experiments, 20,000 cells/well were plated in a poly D-lysine-coated 96-well plate. The cells were transiently transfected with a 1:1:1 mass ratio of the dCas9 plasmid, MS2-P65-HSF1 effector plasmid and the sgRNA plasmid targeting the HBG1 gene or an RFP control plasmid. A total of 0.3 μg plasmid DNA was transfected using Lipofectamine 2000 (Life Technologies) according to manufacturer's protocol. Immediately after transfection, the cells were treated with an appropriate dose of the small-molecule inhibitors. A DMSO solution of compound (20 mM) was resuspended in the 10% FBS containing growth media and thoroughly mixedbefore adding to the cells. After 48 h the cells were lysed and 5 μL of the cell lysate was used to perform reverse transcription using the RevertAid RT Reverse Transcription Kit (Thermo Fischer Scientific) as described by Joung J. et al. qPCR reactions were performed to quantify RNA expression using the TaqMan probes (Life Technologies, HBG1/HBG2: Hs00361131_g1, ACTB: Hs01060665_g1) and TaqMan Fast Advanced Master Mix (Life Technologies) in 5 μL multiplexed reactions and 384-well format using the LightCycler 480 Instrument II (Roche). For each sample, four technical replicates were performed. Data were analyzed using the LightCycler 480 software (Roche) by the ΔΔCt method: Ct values for the gene of interest (HBG1) were normalized to Ct values for the housekeeping gene (ACTB), and fold-changes in the expression level of gene of interest were normalized to RFP-transfected control. The data is reported as mean±S.E.M. for technical replicates.

[4] = Aggregation by dynamic light scattering in PBS; conditions: 40-100 μM tested
SpCas9:gRNA complex = biological target: T3, SpCas9:gRNA complex (Streptococcus pyogenes serotype M1, UniProt Q99ZW2); experiment: 19F NMR binding assay; design: species or system S. pyogenes; conditions: for receptor occupancy at 50 µM: read-out: Fractional Occupancy
T3 construct: made in house; host or cells: E. coli Rosetta (DE3)
Procedure: Table 8 NMR parameters used for analysis of BRD7087 binding to SpCas9:gRNA complex. The binding study of BRD7087 to SpCas9:gRNA complex was analyzed based on the method described by Shortridge et. al. The linewidth (LW) increases with increasing SpCas9:gRNA concentration, as expected. Peak intensity values were used to measure the fractional occupancy using the equation Fractional Occupancy=(1−Ibound/I0), where I0 is the intensity of the peak with no protein in the sample. The peak area remains relatively constant, as expected for a fixed concentration of ligand.
NMR binding assay. All samples were prepared with 50 μM BRD7087 in 20 mM Tris buffer (pH 7.4) with varying concentrations of SpCas9:gRNA in a 3 mm NMR tube. Experiments were performed on a 600 MHZ (^19F: 564.71 MHZ) Bruker Avance III NMR spectrometer equipped with a 5 mm QCI-F CryoProbe and a SampleJet for automated sample handling. To acquire spectra, a standard one-pulse ^19F experiment with WALTZ-16 for proton decoupling during acquisition, a 5 second recycle delay, and 256 scans were used. All spectra were recorded at 280 K. NMR data were apodized with a 1 Hz exponential function prior to Fourier transformation. All spectra were baseline corrected, and peak widths and intensities were extracted using the automated line-fitting feature provided with the MNova software package.

[5] = 50 μM BRD7087, 0.75 μM SpCas9:gRNA
[6] = 50 μM BRD7087, 1.0 μM SpCas9:gRNA
[7] = 50 μM BRD7087, 1.25 μM SpCas9:gRNA
[8] = 50 μM BRD7087, 1.5 μM SpCas9:gRNA
[9] = 50 μM BRD7087, 1.75 μM SpCas9:gRNA

T3 sequence (Q99ZW2 whole entry, one chain of several): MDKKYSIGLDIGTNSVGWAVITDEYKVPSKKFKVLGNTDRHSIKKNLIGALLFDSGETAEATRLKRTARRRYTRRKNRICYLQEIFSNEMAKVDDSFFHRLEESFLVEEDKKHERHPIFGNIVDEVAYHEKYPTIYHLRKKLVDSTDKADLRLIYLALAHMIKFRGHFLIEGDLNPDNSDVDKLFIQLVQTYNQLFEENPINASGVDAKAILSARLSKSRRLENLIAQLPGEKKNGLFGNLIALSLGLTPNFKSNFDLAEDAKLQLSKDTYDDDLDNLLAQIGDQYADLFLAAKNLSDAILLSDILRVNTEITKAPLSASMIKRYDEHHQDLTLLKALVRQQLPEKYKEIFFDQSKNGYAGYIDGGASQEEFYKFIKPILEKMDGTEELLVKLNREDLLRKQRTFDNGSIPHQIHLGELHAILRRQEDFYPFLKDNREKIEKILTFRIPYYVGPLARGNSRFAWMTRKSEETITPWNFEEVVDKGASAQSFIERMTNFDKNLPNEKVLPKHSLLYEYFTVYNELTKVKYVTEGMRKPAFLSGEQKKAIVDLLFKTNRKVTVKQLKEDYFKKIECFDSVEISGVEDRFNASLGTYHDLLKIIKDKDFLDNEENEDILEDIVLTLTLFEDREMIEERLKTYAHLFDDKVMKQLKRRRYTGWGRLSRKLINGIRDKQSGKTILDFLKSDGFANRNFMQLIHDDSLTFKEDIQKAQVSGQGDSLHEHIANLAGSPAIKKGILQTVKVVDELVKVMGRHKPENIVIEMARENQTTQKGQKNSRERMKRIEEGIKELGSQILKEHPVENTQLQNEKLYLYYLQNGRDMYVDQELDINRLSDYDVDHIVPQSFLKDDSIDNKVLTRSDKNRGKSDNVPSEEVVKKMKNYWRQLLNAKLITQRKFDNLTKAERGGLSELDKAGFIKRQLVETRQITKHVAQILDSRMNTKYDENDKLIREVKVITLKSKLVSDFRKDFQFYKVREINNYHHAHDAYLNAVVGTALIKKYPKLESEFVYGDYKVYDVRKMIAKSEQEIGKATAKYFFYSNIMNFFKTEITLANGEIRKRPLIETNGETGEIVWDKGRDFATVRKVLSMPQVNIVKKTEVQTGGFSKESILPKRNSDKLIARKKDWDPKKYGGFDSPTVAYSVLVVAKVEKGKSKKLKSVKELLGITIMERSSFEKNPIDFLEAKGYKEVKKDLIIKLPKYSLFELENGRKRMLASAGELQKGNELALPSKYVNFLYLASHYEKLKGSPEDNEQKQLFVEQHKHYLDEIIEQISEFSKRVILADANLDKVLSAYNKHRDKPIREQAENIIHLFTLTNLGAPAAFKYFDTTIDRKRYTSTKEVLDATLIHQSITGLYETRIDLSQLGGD
T1 sequence (Q99ZW2 whole entry): as the sequence (Q99ZW2 whole entry, one chain of several) above
T2 sequence (Q99ZW2 whole entry, form open, one chain of several, change not shown): as the sequence (Q99ZW2 whole entry, one chain of several) above

| Compound | lowering in the melting temperature of SpCas9 (SpCas9 [1]) [°C] | inhibition of SpCas9 in the mKate2 disruption assay (in words) (SpCas9 [2]) | inhibition of transcriptional activation [3] [%] | concentration beyond which aggregates form [4] [µM] | no detectable aggregation up to [4] [µM] | LW (linewidth of 19F signal) (SpCas9:gRNA complex; [5]) [Hz] | receptor occupancy at 50 µM (SpCas9:gRNA complex; [5]) [%] | LW (linewidth of 19F signal) (SpCas9:gRNA complex; [6]) [Hz] | receptor occupancy at 50 µM (SpCas9:gRNA complex; [6]) [%] | LW (linewidth of 19F signal) (SpCas9:gRNA complex; [7]) [Hz] | receptor occupancy at 50 µM (SpCas9:gRNA complex; [7]) [%] | LW (linewidth of 19F signal) (SpCas9:gRNA complex; [8]) [Hz] | receptor occupancy at 50 µM (SpCas9:gRNA complex; [8]) [%] | LW (linewidth of 19F signal) (SpCas9:gRNA complex; [9]) [Hz] | receptor occupancy at 50 µM (SpCas9:gRNA complex; [9]) [%] | binding to SpCas9:gRNA by 19F line broadening (in words) (SpCas9:gRNA complex; significant broadening at protein concentrations as low as 0.75 μM) |
| --- | --- | --- | --- | --- | --- | --- | --- | --- | --- | --- | --- | --- | --- | --- | --- | --- |
| Cc1ccc(S(=O)(=O)N2CC[C@@H]3[C@H](CO)Nc4ccc(-c5ccccc5F)cc4[C@@H]32)cc1 [BRD0539, ((3aR,4R,9bR)-8-(2-fluorophenyl)-1-tosyl-2,3,3a,4,5,9b-hexahydro-1H-pyrrolo[3,2-c]quinolin-4-yl) methanol] | ~2.5 | – | – | – | – | – | – | – | – | – | – | – | – | – | – | – |
| OC[C@H]1Nc2ccc(-c3cccc(F)c3)cc2[C@H]2[C@@H]1CCN2Cc1ccncc1 [BRD7087, ((3aR,4S,9bR)-8-(3-Fluorophenyl)-1-(pyridin-4-ylmethyl)-2,3,3a,4,5,9b-hexahydro-1H-pyrrolo[3,2-c]quinolin-4-yl) methanol] | – | dose-dependent inhibition | ~60 | > 80 | ~60 | 4.3 | 13.1 | 4.6 | 18.2 | 5.3 | 30.4 | 5.9 | 34.4 | 6.3 | 40.1 | tight binding |
